Data reported in patent US11172681B2 (priority 2017, dated 2021).

Experiments:
[1] = Physicochemical stability test (thermal storage of technical material in ovens for 2 months); conditions: for Stability at different temperatures: 25-70° C.; for Purity after thermal storage: HPLC
Method: Thereafter, technical materials of the two crystalline forms were placed into ovens with temperatures of 25° C., 40° C., 55° C. and 70° C. respectively and left there for 2 months for thermal storage test.

[2] = Synergistic effect with other herbicides

| Structure (SMILES) | Stability at different temperatures [1] | Crystalline form after thermal storage ([1]; 25° C.) | Purity after thermal storage ([1]; 25° C.) [%] | Crystalline form after thermal storage ([1]; 40° C.) | Purity after thermal storage ([1]; 40° C.) [%] | Crystalline form after thermal storage ([1]; 55° C.) | Purity after thermal storage ([1]; 55° C.) [%] | Crystalline form after thermal storage ([1]; 70° C.) | Purity after thermal storage ([1]; 70° C.) [%] | Synergistic effect with one or more listed herbicides [2] |
| --- | --- | --- | --- | --- | --- | --- | --- | --- | --- | --- |
| Cc1nn(C)cc1C(=O)Oc1c(C(=O)c2ccc(C(F)(F)F)cc2S(C)(=O)=O)c(C)nn1C [Crystalline form C of shuangzuocaotong, 1,3-Dimethyl-1H-pyrazole-4-carboxylic acid 4-[2-methanesulfonyl-4-trifluoromethyl-benzoyl]-1,3-dimethyl-1H-pyrazol-5-yl ester] | good stability | Crystalline form C | 96.0 | Crystalline form C | 95.8 | Crystalline form C | 95.7 | Crystalline form C | 95.2 | obvious synergistic effect |
| Cc1nn(C)cc1C(=O)Oc1c(C(=O)c2ccc(C(F)(F)F)cc2S(C)(=O)=O)c(C)nn1C [Crystalline form A of shuangzuocaotong, 1,3-Dimethyl-1H-pyrazole-4-carboxylic acid 4-[2-methanesulfonyl-4-trifluoromethyl-benzoyl]-1,3-dimethyl-1H-pyrazol-5-yl ester] | good stability | Crystalline form A | 96.0 | Crystalline form A | 95.5 | Crystalline form A | 95.1 | Crystalline form A | 94.2 | – |
